Reference: article PMC5808567 (Journal of medicinal chemistry, 2018)

Columns and labels:
[1] = Metal chelation by UV spectroscopy, Fe3+; format: physicochemical; conditions: 100 µM E-3a, 10 mM ammonium acetate pH 7.0, anaerobic, metal 100 µM-5 mM
[2] = system: normal mobilized peripheral blood progenitor cells; conditions: cited from earlier work
[3] = system: HCT116 and MDA-MB-231 cell lines; experiment: Growth inhibition assay, both cancer cell lines; format: cell-based; conditions: Homo sapiens, 72 h, read-out: growth inhibition IC50

Structure (SMILES)	chelation of Fe^3+ [1]	cytotoxicity against normal cells [2]	IC50 [3] [nM]
O=C(N/N=C/c1c(O)ccc2ccccc12)c1ccccc1O [E-3a, 2-hydroxy-N'-((2-hydroxynaphthalen-1-yl)methylene)benzohydrazide]	does not chelate Fe^3+ ions	little cytotoxicity	
Nc1ccn([C@@H]2O[C@H](CO)[C@@H](O)C2(F)F)c(=O)n1 [gemcitabine]			30 to 100
